Measurements as given in patent US10760050B2, “Method for producing retinal pigment epithelial cells” (SUMITOMO CHEMICAL COMPANY, LIMITED, priority 2013, dated 2020).

Tested on: Human ES cells (KhES-1-derived)
Assay: Adhesion culture of cells dispersed from human ES cell-derived aggregates with added factors; level of epithelial formation observed under a microscope (Example 5)
Type: cell-based
Conditions: observed at day 40, compared to the control free of the addition
Procedure: Human ES cells (KhES-1-derived) were cultured according to the methods described in “Ueno, M. et al. PNAS 2006, 103(25), 9554-9559” and “Watanabe, K. et al. Nat Biotech 2007, 25, 681-686”. As the medium, a medium obtained by adding 20% KSR KNOCKOUT™ Serum Replacement; Invitrogen), 0.1 mM 2-mercaptoethanol, 2 mM L-glutamine, 1× non-essential amino acid, 5 ng/ml bFGF to DMEM/F12 medium (Sigma) was used. The cultured ES cells were dispersed into single cells using TrypLE Express (Invitrogen), and the above-mentioned cultured ES cells were suspended in 100 μl of a serum-free medium at 1.2×10^4 cells per one well of a non-cell adhesive 96 well culture plate (sumilon spheroid plates, SUMITOMO BAKELITE Co., Ltd.) to allow for rapid formation of aggregates and subjected to culture at 37° C., 5% CO2. As the serum-free medium therefor, a serum-free medium obtained by adding 10% KSR, 450 μM 1-monothioglycerol, 1× Chemically defined lipid concentrate, 20 μM Y27632 to a 1:1 mixture of F-12 medium and IMDM medium was used. At day 3 from the start of the floating culture, BMP4 was added al a concentration 1.5 nM, and floating culture was continued. A half amount of the culture medium in the well was exchanged every 3 days with the above-mentioned medium not supplemented with a substance acting on the BMP signal transduction pathway. […]

| Molecule | level of epithelial formation (pigmentation of retinal pigment epithelial cells) (3 μM added at day 24 from the start of the floating culture, FIG. 5B) | level of epithelial formation (uniformity of epithelium) (1 nM added at day 24, FIG. 5E) |
| --- | --- | --- |
| Cc1c[nH]c(-c2cnc(NCCNc3ccc(C#N)cn3)nc2-c2ccc(Cl)cc2Cl)n1 [CHIR99021] | differentiated into darker retinal pigment epithelial cells | – |
| recombinant human BMP4 protein: BMP protein, a substance acting on the BMP signal transduction pathway (protein, UniProt P12644 293-408, looked up) Bone morphogenetic protein 4: SPKHHSQRARKKNKNCRRHSLYVDFSDVGWNDWIVAPPGYQAFYCHGDCPFPLADHLNSTNHAIVQTLVNSVNSSIPKACCVPTELSAISMLYLDEYDKVVLKNYQEMVVEGCGCR | – | more uniform epithelium |
